Assay results from PubChem BioAssay AID1919005 (Molecular Pharmacology Branch, DTP, NCI, 2023).

System: 855422-203-R-J1-PDC complex spheroid growth
Assay: Anticancer human tumor 855422-203-R-J1-PDC patient-derived bladder carcinoma cell line growth inhibition [AhR]
Conditions: for IC50: curve of first compound; for viability, T/C: stronger effect = lower value
How it was run: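 Agents were dosed in half-log steps down from roughly clinical Cmax, or from 10 microM where Cmax was unknown, alone and with AhR antagonists. Read-out: percent test/control growth of tumor spheroids containing HUVEC and MSC stromal cells.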

[1] = second compound 0.1 µM, first compound 0.0316 µM
[2] = second compound 0.1 µM, first compound 0.1 µM
[3] = second compound 0.1 µM, first compound 0.316 µM
[4] = second compound 0.1 µM, first compound 1 µM
[5] = second compound 0.1 µM, first compound 3.16 µM
[6] = second compound 0.1 µM, first compound 10 µM
[7] = second compound 0.316 µM, first compound 0.0316 µM
[8] = second compound 0.316 µM, first compound 0.1 µM
[9] = second compound 0.316 µM, first compound 0.316 µM
[10] = second compound 0.316 µM, first compound 1 µM
[11] = second compound 0.316 µM, first compound 3.16 µM
[12] = second compound 0.316 µM, first compound 10 µM
[13] = second compound 1 µM, first compound 0.0316 µM
[14] = second compound 1 µM, first compound 0.1 µM
[15] = second compound 1 µM, first compound 0.316 µM
[16] = second compound 1 µM, first compound 1 µM
[17] = second compound 1 µM, first compound 3.16 µM
[18] = second compound 1 µM, first compound 10 µM
[19] = second compound 3.16 µM, first compound 0.0316 µM
[20] = second compound 3.16 µM, first compound 0.1 µM
[21] = second compound 3.16 µM, first compound 0.316 µM
[22] = second compound 3.16 µM, first compound 1 µM
[23] = second compound 3.16 µM, first compound 3.16 µM
[24] = second compound 3.16 µM, first compound 10 µM
[25] = second compound 10 µM, first compound 0.0316 µM
[26] = second compound 10 µM, first compound 0.1 µM
[27] = second compound 10 µM, first compound 0.316 µM
[28] = second compound 10 µM, first compound 1 µM
[29] = second compound 10 µM, first compound 3.16 µM
[30] = second compound 10 µM, first compound 10 µM
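Further: spheroids exposed to agents for seven days before readout.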
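Wherever viability, T/C is given: percent of DMSO vehicle control luminescence viability.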

Row | SMILES | IC50 (second compound 0.1 µM) [nM] | IC50 (second compound 0.316 µM) [nM] | IC50 (second compound 1 µM) [nM] | IC50 (second compound 3.16 µM) [nM] | IC50 (second compound 10 µM) [nM] | viability, T/C [1] [%] | viability, T/C [2] [%] | viability, T/C [3] [%] | viability, T/C [4] [%] | viability, T/C [5] [%] | viability, T/C [6] [%] | viability, T/C [7] [%] | viability, T/C [8] [%] | viability, T/C [9] [%] | viability, T/C [10] [%] | viability, T/C [11] [%] | viability, T/C [12] [%] | viability, T/C [13] [%] | viability, T/C [14] [%] | viability, T/C [15] [%] | other results
1 | CC(C)c1c(-c2ccccc2)nc2c(C#N)c[nH]n2c1=O + CC(CO)NC(=O)c1cc(-c2ccc(Cl)cc2)nn(-c2cnn(C)c2)c1=O | > 10000 | > 10000 | > 10000 | > 10000 | > 10000 | 103 | 100 | 95.2 | 85.6 | 92.4 | 91.8 | 93.1 | 105 | 95.8 | 105 | 98.8 | 92 | 103 | 106 | 104 | viability, T/C [16]: 99.8%; viability, T/C [17]: 99.6%; viability, T/C [18]: 96.5%; viability, T/C [19]: 97.3%; viability, T/C [20]: 106%; viability, T/C [21]: 99.2%; viability, T/C [22]: 93.6%; viability, T/C [23]: 91.3%; viability, T/C [24]: 110%; viability, T/C [25]: 86.9%; viability, T/C [26]: 90.9%; viability, T/C [27]: 91.7%; viability, T/C [28]: 98%; viability, T/C [29]: 93%; viability, T/C [30]: 92.1%
2 | NS(=O)(=O)OCC1CC(n2ccc3c(NC4CCc5ccccc54)ncnc32)CC1O (stereo not given) + Cc1ccccc1N=Nc1ccc(NC(=O)c2ccnn2C)c(C)c1 | 3020 | 2530 | 1970 | 1030 | 484 | 104 | 110 | 124 | 98.5 | 48.5 | 16.3 | 102 | 113 | 120 | 90.3 | 40.9 | 16.5 | 101 | 115 | 109 | viability, T/C [16]: 77.7%; viability, T/C [17]: 31.1%; viability, T/C [18]: 15.3%; viability, T/C [19]: 105%; viability, T/C [20]: 110%; viability, T/C [21]: 78.8%; viability, T/C [22]: 54.2%; viability, T/C [23]: 20.7%; viability, T/C [24]: 12%; viability, T/C [25]: 73.8%; viability, T/C [26]: 80.2%; viability, T/C [27]: 56.5%; viability, T/C [28]: 35.2%; viability, T/C [29]: 13.6%; viability, T/C [30]: 12.1%
3 | NS(=O)(=O)OCC1CC(n2ccc3c(NC4CCc5ccccc54)ncnc32)CC1O (stereo not given) + Cc1cncc(-c2nc(NCCc3c[nH]c4ccccc34)c3ncn(C(C)C)c3n2)c1 | 860 | 647 | 499 | 216 | < 31.6 | 114 | 119 | 78.2 | 50.4 | 12.8 | 10.9 | 96.5 | 113 | 52.1 | 50.9 | 10.8 | 9.91 | 98.3 | 106 | 50.7 | viability, T/C [16]: 40.3%; viability, T/C [17]: 11.7%; viability, T/C [18]: 9.3%; viability, T/C [19]: 80.2%; viability, T/C [20]: 75.9%; viability, T/C [21]: 37.1%; viability, T/C [22]: 12.5%; viability, T/C [23]: 8.33%; viability, T/C [24]: 8.5%; viability, T/C [25]: 9.89%; viability, T/C [26]: 4.7%; viability, T/C [27]: 3.03%; viability, T/C [28]: 0.63%; viability, T/C [29]: 1.67%; viability, T/C [30]: 1.45%
4 | CC(C)c1c(-c2ccccc2)nc2c(C#N)c[nH]n2c1=O + Cc1ccccc1N=Nc1ccc(NC(=O)c2ccnn2C)c(C)c1 | > 10000 | > 10000 | > 10000 | > 10000 | > 10000 | 98.4 | 105 | 94.5 | 92.9 | 89.5 | 89 | 106 | 99 | 96.9 | 104 | 91.2 | 93 | 95.8 | 103 | 96.5 | viability, T/C [16]: 101%; viability, T/C [17]: 91.4%; viability, T/C [18]: 90.5%; viability, T/C [19]: 94.4%; viability, T/C [20]: 93.7%; viability, T/C [21]: 89.7%; viability, T/C [22]: 88.7%; viability, T/C [23]: 89.5%; viability, T/C [24]: 82.1%; viability, T/C [25]: 81.8%; viability, T/C [26]: 83.6%; viability, T/C [27]: 76.9%; viability, T/C [28]: 86%; viability, T/C [29]: 76.5%; viability, T/C [30]: 73.6%
